Test results taken from patent publication US20250340661A1, “ANTI CD40 ANTIBODY, ANTIGEN BINDING FRAGMENT AND MEDICAL USE THEREOF” (Jiangsu Hengrui Pharmaceuticals Co., Ltd., priority 2021, published 2025).

Test system: human CD40 transgenic mice
Test: Mouse skin graft rejection model
Type: in vivo
Conditions: for Skin graft score: 3 mpk
From the text: Male Balb/c mice, 6 weeks old, were purchased from the Laboratory Animal Management Department, Shanghai Institute of Planned Parenthood Research. Housing environment: SPF; certification number: 20180006023393.
On day −2 of the experiment, the mice were intraperitoneally injected with tacrolimus FK506 or CD40 antagonistic antibodies. On day 0 of the experiment, donor Balb/c mice and C57BL6/J mice were anesthetized with 4% chloral hydrate. The tails of the donor mice were removed, and full circles of skin, 1 cm in length, were isolated from the tails. The hair on the acceptor mice's back was removed, and an incision was made along the skin layer. An equal area of skin was removed while preserving the back fat and connective tissue. The donor skin was placed on the acceptor mice's incision site, and the incision was closed with glue. The mice were then placed back in cages to recover.
The mice were dosed according to the administration regimens in Table 17. After 7 days of recovery, the mouse skin survival was observed daily and rejection scores were recorded.

With `C=CC[C@@H]1/C=C(\C)C[C@H](C)C[C@H](OC)[C@H]2O[C@@](O)(C(=O)C(=O)N3CCCC[C@H]3C(=O)O[C@H](/C(C)=C/[C@@H]3CC[C@@H](O)[C@H](OC)C3)[C@H](C)[C@@H](O)CC1=O)[C@H](C)C[C@@H]2OC` [FK506, tacrolimus, reference compound] the Skin graft score (8 days, scale 3 (no rejection) to 0) was 2.5, the Skin graft score (10 days, scale 3 to 0) was 1.5 and the Skin graft score (15 days, scale 3 to 0) was 0.5. The Skin graft score (20 days, scale 3 to 0) was 0 and the “Skin graft survival rate (%)” value (Day 15, 3 mpk ip) was 16.7%.
